These results are taken from the Kinase Knowledgebase extract (Sharma et al. 2016).

Structures are written as SMILES. pKd: −log10 of the molar value.

By pKd is commonly meant the Kd on a negative log10 scale, so that one unit is a factor of ten. Lower therefore signals a high Kd.

This assay has as its target CDK2 (UniProt P24941).

The compound `O=C1c2ccccc2-c2n[nH]c3cccc1c23` gave a pKd of 5.49.
